{"source": "patent US7405309B2", "about": "“Pyranone derivatives useful for treating cancer” (Centre National de la Recherche Scientifique (CNRS), priority 2004, dated 2008)", "key": {"[1]": {"system": "HCT-116 cells (colorectal carcinoma)", "assay": "Study of cytotoxicity on HCT-116 cells", "type": "cell-based", "details": "Homo sapiens, 96 hours of incubation, 37° C., read-out: concentration which induces the death of 50% of the cells (IC50)", "method": "(§1) The biological activity of iodomethylene-dimethyl-dihydropyranone (I), as obtained according to Example 1, was studied in vitro on five different cell lines: • KB (epidermoid carcinoma of the nasopharynx) • HCT-116 (colorectal carcinoma) • K562 (myeloid leukemia) • K562-MDR1 (myeloid leukemia; resistance to doxorubicin) • MCF7-MDR1 (mammary adenocarcinoma; resistance to doxorubicin)\n(§2) The cells selected for this study were incubated at 37° C. in the presence of iodomethylene-dimethyl-dihydropyranone (I) added to the culture medium at various concentrations. All the experiments carried out made it possible to determine the degree of toxicity of the test compound, its effect on the course of the cell cycle and its capacity to induce cell death by apoptosis.\n(§3) The cytotoxicity of iodomethylene-dimethyl-dihydropyranone (I) was evaluated on KB and HCT-116 cells."}, "[2]": {"system": "KB cells (epidermoid carcinoma of the nasopharynx)", "assay": "Study of cytotoxicity on KB cells", "type": "cell-based", "details": "Homo sapiens, 96 hours of incubation, 37° C., read-out: concentration which induces the death of 50% of the cells (IC50)", "method": "as §1, §2, §3"}, "[3]": {"system": "K562 cells (myeloid leukemia)", "assay": "Morphology of treated K562 cells", "type": "cell-based", "details": "10^−7 M, 24 hours", "method": "as §1, §2\nIt should also be emphasized that from 24 hours onwards after the treatment with iodomethylene-dimethyl-dihydropyranone (I) at the dose of 10^−7 M, a change is observed in the morphology of the treated cells."}, "[4]": {"system": "K562 cells (myeloid leukemia)", "assay": "Study of the cell cycle by flow cytometry, K562", "type": "cell-based", "details": "significant after 24 hours at 10^−7 M", "method": "as §1, §2\n(§4) This effect is significant after 24 hours of exposure of the cells to iodomethylene-dimethyl-dihydropyranone (I) used at the concentration 10^−7 M (cf. FIG. 4: effect of (I) on the cell cycle of the leukemia cells K562)."}, "[5]": {"system": "K562-MDR1 cells (myeloid leukemia; resistance to doxorubicin)", "assay": "Study of the cell cycle by flow cytometry, K562-MDR1", "type": "cell-based", "details": "significant after 24 hours at 10^−7 M", "method": "as §1, §2, §4"}, "[6]": {"system": "HCT116 cells (colorectal carcinoma)", "assay": "Study of the cell cycle by flow cytometry, HCT116", "type": "cell-based, human", "details": "significant after 24 hours at 10^−7 M", "method": "as §1, §2, §4"}, "[7]": {"system": "MCF7-MDR1 cells (mammary adenocarcinoma; resistance to doxorubicin)", "assay": "Study of the cell cycle by flow cytometry, MCF7-MDR1", "type": "cell-based", "details": "significant after 24 hours at 10^−7 M", "method": "as §1, §2, §4"}, "[8]": {"system": "K562-MDR1 cells (chemoresistant)", "assay": "Study of apoptosis, flow cytometry with annexin V / propidium iodide double labeling", "type": "cell-based", "details": "24 hours, 10^−6 M and 10^−7 M"}, "[9]": {"assay": "Maximum tolerated dose for a single intravenous injection", "details": "Swiss Nu/nu (nude), mouse, in vivo, Nude mice, survival and weight monitored up to day 21", "method": "The iodomethylene-dimethyl-dihydropyranone (I), as obtained according to Example 1, was injected by the intravenous route (iv) to 4-5 week old Nude mice (Swiss Nu/nu) at the following doses: 50 mg/kg, 66.6 mg/kg, 100 mg/kg, 150 mg/kg and 200 mg/kg."}, "[10]": {"assay": "in vivo", "details": "Nude, mouse, iv", "method": "Having determined the maximum tolerated dose for a single injection, the Nude mice were treated by the intravenous (iv) route with iodomethylene-dimethyl-dihydropyranone (I) injected at three different doses: 50, 70 and 90 mg/kg/injection. Each dose was administered 4 times at 3 day intervals (D0, D3, D6 and D9). The survival of the animals, their weight and clinical signs noted up to day 21 made it possible to establish the value of the maximum tolerated dose for four injections which is at less than 90 mg/kg. The 40, 60 and 80 mg/kg doses were therefore chosen for the evaluation of antitumor activity."}, "[11]": {"system": "HCT 116 tumor transplanted under the skin", "assay": "Antitumor activity in Nude mice carrying a transplanted HCT 116 tumor", "type": "in vivo", "method": "This antitumor activity of the compounds of the invention was studied on transplanted tumors (such as HCT-116) in Nude mice (nu/nu mice). Nude mice are immunodeficient mice having no thymus.\nThe xenotransplantation of human tumor cells in Nude mice is a model commonly used for the evaluation of the antitumor activity of various molecules.\nThe iodomethylene-dimethyl-dihydropyranone (I) was injected 4 times at 3 day intervals (D0, D3, D6 and D9). Two groups of control animals were formed. The first group received no injection (control), whereas the animals of the second group received injections of the solution which served to solubilize the iodomethylene-dimethyl-dihydropyranone (I) (vehicle).\nThe volume of the tumors (mm^3) was measured with a caliper twice per week."}}, "data": [{"smiles": "CC1(C)OC(=O)C=C/C1=C\\I", "note": "[E-5-iodomethylene-6,6-dimethyl-5,6-dihydropyran-2-one]", "values": [{"measurement": "IC50", "setting": "[1]", "value": "~300", "unit": "nM"}, {"measurement": "IC50", "setting": "[2]", "value": "~450", "unit": "nM"}, {"measurement": "change in the morphology of the treated cells", "setting": "[3]", "value": "the cells lose their round forms and become fusiform"}, {"measurement": "effect on the cell cycle", "setting": "[4]", "value": "blocks cell division in all the lines at the G2/M phase"}, {"measurement": "effect on the cell cycle", "setting": "[5]", "value": "blocks cell division in all the lines at the G2/M phase"}, {"measurement": "effect on the cell cycle", "setting": "[6]", "value": "blocks cell division in all the lines at the G2/M phase"}, {"measurement": "effect on the cell cycle", "setting": "[7]", "value": "blocks cell division in all the lines at the G2/M phase"}, {"measurement": "induction of apoptosis (positive annexin V/negative PI cells)", "setting": "[8]", "value": "high induction of apoptosis"}, {"measurement": "MTD at 21 day", "setting": "[9]", "value": 100, "unit": "mg/kg"}, {"measurement": "MTD at 21 day", "setting": "[10]", "value": "< 90", "unit": "mg/kg"}, {"measurement": "tumor progression (tumor volume growth curves)", "setting": "[11]; 80 mg/kg/injection iv, D0, D3, D6, D9, from the 2nd injection", "value": "significantly inhibits the tumor progression"}, {"measurement": "percentage T/C (median tumor volume treated/control ×100)", "setting": "[11]; 21 days after the start of the treatments, iv, 4 injections, dose not stated", "value": 53.5, "unit": "%"}]}]}
